IC50, inhibition and Activity data for 18 compounds are collected here from ChEMBL document CHEMBL1149214, “1,2-Diaryl-1-ethanone and pyrazolo [4,3-c] quinoline-4-one as novel selective cyclooxygenase-2 inhibitors” (Bioorg Med Chem Lett, 2004).

For experiment [1], the target named is T1, Prostaglandin G/H synthase 1 (Ovis aries, UniProt P05979).
T1 sequence (P05979 whole entry): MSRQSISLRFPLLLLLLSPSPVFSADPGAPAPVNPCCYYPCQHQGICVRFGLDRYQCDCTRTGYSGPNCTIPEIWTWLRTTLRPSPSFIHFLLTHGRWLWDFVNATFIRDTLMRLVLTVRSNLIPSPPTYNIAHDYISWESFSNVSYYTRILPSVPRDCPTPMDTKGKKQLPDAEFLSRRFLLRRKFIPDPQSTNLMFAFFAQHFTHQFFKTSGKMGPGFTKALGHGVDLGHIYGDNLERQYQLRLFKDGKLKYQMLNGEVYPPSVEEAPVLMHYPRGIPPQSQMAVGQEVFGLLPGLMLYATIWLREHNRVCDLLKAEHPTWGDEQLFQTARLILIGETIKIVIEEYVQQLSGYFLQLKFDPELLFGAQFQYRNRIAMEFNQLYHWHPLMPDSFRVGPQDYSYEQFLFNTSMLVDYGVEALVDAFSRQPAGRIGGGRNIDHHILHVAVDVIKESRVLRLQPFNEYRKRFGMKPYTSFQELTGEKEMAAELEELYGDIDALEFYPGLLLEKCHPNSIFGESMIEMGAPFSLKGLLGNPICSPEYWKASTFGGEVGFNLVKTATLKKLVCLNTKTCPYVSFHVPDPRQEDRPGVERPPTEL
Nature of the experiment: Inhibition of prostaglandin G/H synthase 1 enzyme from ram seminal vesicles by spectrophotometric method.

Experiment [2] deals with T2, Prostaglandin G/H synthase 2 (Homo sapiens, UniProt P35354).
T2 sequence (P35354 whole entry): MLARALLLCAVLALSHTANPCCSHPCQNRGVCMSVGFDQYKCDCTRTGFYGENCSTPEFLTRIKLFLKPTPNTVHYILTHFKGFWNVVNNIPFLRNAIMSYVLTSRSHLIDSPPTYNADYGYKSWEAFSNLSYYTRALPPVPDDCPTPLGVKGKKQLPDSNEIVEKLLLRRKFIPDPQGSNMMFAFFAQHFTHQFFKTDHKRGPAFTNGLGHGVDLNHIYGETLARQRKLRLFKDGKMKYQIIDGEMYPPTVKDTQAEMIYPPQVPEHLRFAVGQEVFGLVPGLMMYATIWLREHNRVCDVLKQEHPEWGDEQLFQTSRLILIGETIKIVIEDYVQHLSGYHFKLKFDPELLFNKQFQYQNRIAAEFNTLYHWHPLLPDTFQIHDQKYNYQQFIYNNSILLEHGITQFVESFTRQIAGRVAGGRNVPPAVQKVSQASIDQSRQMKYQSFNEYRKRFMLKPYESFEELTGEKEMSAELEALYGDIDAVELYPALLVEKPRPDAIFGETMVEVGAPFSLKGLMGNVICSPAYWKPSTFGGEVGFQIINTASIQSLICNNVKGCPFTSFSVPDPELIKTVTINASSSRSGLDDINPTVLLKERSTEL
Nature of the experiment: Inhibition of human Prostaglandin G/H synthase 2 in sf-9 cells by spectrophotometric method.

Experiment [3] has as its target T3, Prostaglandin G/H synthase 1 (Ovis aries) (UniProt P05979).
T3 sequence (whole entry): T1 sequence (P05979 whole entry)
Nature of the experiment: Inhibition of prostaglandin G/H synthase 1 enzyme from ram seminal vesicles by spectrophotometric method at 10 uM.

For the next experiment, the system named is Rattus norvegicus. Nature of the experiment: Activity in Carrageenan induced rat paw model at 30 mg/Kg; Range = 25-45%. It is filed as functional.
The target in experiment [4] is T2, Prostaglandin G/H synthase 2. Nature of the experiment: Inhibition of human Prostaglandin G/H synthase 2 in sf-9 cells by spectrophotometric method. Type of experiment: cell-based, Sf9.

As for `Cc1nn(-c2ccc(S(N)(=O)=O)cc2)c2c1c(=O)[nH]c1ccc([N+](=O)[O-])cc12`, the IC50 in experiment [1] was found to be 4.7 µM; in experiment [2] it was 0.24 µM.
`CS(=O)(=O)c1ccc(C(Nc2nccs2)C(=O)c2ccc(F)cc2)cc1` (centres undefined): the inhibition in experiment [3] is -0%.
`Cc1nn(-c2ccc(S(N)(=O)=O)cc2)c2c1c(O)nc1ccc([N+](=O)[O-])cc12`: in experiment [3], the inhibition came out at 40%. Moreover, the Activity in the experiment with Rattus norvegicus is less than 45%.
Consider `NS(=O)(=O)c1ccc(C(Nc2ncccn2)C(=O)c2ccc(F)cc2)cc1` (centres undefined), for which the inhibition in experiment [3] is -0%.
For the compound `C[S+]([O-])c1ccc(C(Nc2nccs2)C(=O)c2ccc(F)cc2)cc1` (centres undefined), the IC50 came to 500 µM in experiment [1] and 2.1 µM in experiment [4]. Also, in experiment [3], the inhibition was -0%. In the experiment with Rattus norvegicus, the Activity is reported as less than 45%.
On to `Cc1nn(-c2ccc(S(N)(=O)=O)c(CO)c2)c2c1c(O)nc1ccccc12`, for which the inhibition in experiment [3] is -0%.
The same measure, in the same setting: in the case of `NS(=O)(=O)c1ccc(C(Nc2nccs2)C(=O)c2ccc(F)cc2)cc1` (centres undefined) it was -0%; in that of `NS(=O)(=O)c1ccc(C(Nc2nc3ccccc3s2)C(=O)c2ccc(F)cc2)cc1` (centres undefined), 23%.
On the same count and under the same terms, in the case of `NS(=O)(=O)c1ccc(C(Nc2ccccn2)C(=O)c2ccc(F)cc2)cc1` (centres undefined) it was 30%; in that of `Cc1nn(-c2ccc(S(N)(=O)=O)c(CO)c2)c2c1c(O)nc1ccc([N+](=O)[O-])cc12`, -0%.
As to `Cc1nn(-c2ccccc2)c2c1c(O)nc1ccc([N+](=O)[O-])cc12`, the IC50 in experiment [1] was 5 µM; in experiment [2], 0.55 µM. The inhibition in experiment [3] was determined as 46%. In addition, the Activity in the experiment on Rattus norvegicus was less than 45%.
On to `Cc1nn(-c2ccc(S(N)(=O)=O)cc2)c2c1c(O)nc1ccccc12`, for which, in experiment [3], the inhibition came out at 20%.
With `CS(=O)(=O)c1ccc(C(=O)C(Nc2nccs2)c2ccccc2)cc1` (centres undefined), the inhibition in experiment [3] stood at 10%.
Compound `CSc1ccc(C(=O)C(Nc2ncccc2Cl)c2ccccc2)cc1` (centres undefined) gave an inhibition in experiment [3] of 53%.
Take `Cc1nn(-c2ccccc2)c2c1c(O)nc1ccccc12`: the inhibition in experiment [3] came to 82%.
The same measure, in the same setting: under `C[S+]([O-])c1ccc(C(=O)C(Nc2nccs2)c2ccccc2)cc1` (centres undefined) stands 29%.
With `Cc1nn(-c2ccc(S(=O)(=O)NCc3ccccc3)cc2)c2c1c(O)nc1ccc([N+](=O)[O-])cc12`, the inhibition in experiment [3] came out at 78%.
For the compound `C[S+]([O-])c1ccc(C(Nc2cccnc2)C(=O)c2ccc(F)cc2)cc1` (centres undefined), the IC50 in experiment [1] worked out at 50 µM; in experiment [4] it was 0.5 µM. Also, in experiment [3], the inhibition is -0%. In addition, the Activity with Rattus norvegicus is recorded as less than 45%.
